Reference: patent US8138194B2, “Fused bicyclic pyrimidine compounds as aurora kinase inhibitors” (National Health Research Institutes, priority 2008, dated 2012)
pIC50: −log10 of the molar value. “And” between values parts separate entries of the source, which are not always exact repeats. Identical values can stand only once. Like-named read-outs stand apart in the source and are kept apart here.

Assays:
[1] = molecular target: T1, GST-tAurora A (123-401aa) fusion protein (Homo sapiens, UniProt O14965); assay: Aurora Kinase A luminescent kinase assay; type: biochemical; conditions: IC50 (concentration of a test compound at which activity of 50% of Aurora A is inhibited)
T1 construct: GST-tAurora A (123-401aa) fusion protein; made in house; host or cells: Sf9 insect cells (baculovirus, pBacPAK8)
T1 sequence (O14965 123-401): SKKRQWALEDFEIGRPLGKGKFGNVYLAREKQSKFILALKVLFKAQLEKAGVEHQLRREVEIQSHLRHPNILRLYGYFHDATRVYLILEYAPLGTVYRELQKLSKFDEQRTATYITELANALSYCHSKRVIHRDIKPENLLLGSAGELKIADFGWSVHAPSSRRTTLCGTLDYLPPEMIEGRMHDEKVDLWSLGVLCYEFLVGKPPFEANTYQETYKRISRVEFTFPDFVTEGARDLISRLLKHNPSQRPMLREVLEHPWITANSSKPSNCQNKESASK

HCT-116 cells = assay: HCT-116 cell viability MTS assay; type: cell-based; conditions: Homo sapiens, read-out: IC50 (concentration of a test compound which causes 50% of the cell death)
Method: HCT-116 cell viability was examined by the MTS assay (Promega, Madison, Wis., USA). 2000 HCT-116 cells in 100 μL McCoy's 5a medium were seeded in each well of a 96-well plate. After 96-h incubation with a test compound, the cells were incubated with 20 μL of a MTS/PMS mixture (MTS/PMS ratio: 20: 1) for 2 h at 37° C. in a humidified incubator with 5% CO2 to allow viable cells to convert the tetrazolium salt (MTS) into formazan. The amount/concentration of formazan, which indicates the number of live cells, was determined by measuring the absorbance at 490 nm using a PerkinElmer Victor2 plate reader (PerkinElmer, Shelton, Cont., USA).

HCT-116 xenografts = assay: In vivo anticancer activity, colon tumor xenograft mice (injected with HCT-116); parameters: species or system nude mice; conditions: for average tumor size: treated mice
Method: In vivo efficacy of the compounds of this invention was assessed using colon tumor xenograft mice (injected with HCT-116), as described in Cancer Research 2004, 64, 4621-4628.
HCT-116 cells were grown as subcutaneous tumors in nude mice. When well-established HCT-116 xenografts were palpable with tumor size of ˜100 mm^3, mice were randomly assigned to three groups: a vehicle control group (10 mice), a positive control group (10 mice), and a treatment group (21 mice). Of the treated mice, ten received Compound 209 at a daily dosage of 5 mg/kg and eleven received the same compound at a daily dosage of 15 mg/kg of via IV injection through the tail veins for 5 days/week for 2 consecutive weeks (days 1-5 and 8-12). The positive control mice received VX-680 (a known anti-cancer compound) at a daily dosage of 50 mg/kg, also via IV injection through the tail veins for 5 days/week for 2 consecutive weeks (days 1-5 and 8-12).

PLK4 = molecular target: T2, PLK4 (Homo sapiens, UniProt O00444); assay: Inhibition of other protein kinases: PLK4; type: biochemical
T2 sequence (O00444 1-970): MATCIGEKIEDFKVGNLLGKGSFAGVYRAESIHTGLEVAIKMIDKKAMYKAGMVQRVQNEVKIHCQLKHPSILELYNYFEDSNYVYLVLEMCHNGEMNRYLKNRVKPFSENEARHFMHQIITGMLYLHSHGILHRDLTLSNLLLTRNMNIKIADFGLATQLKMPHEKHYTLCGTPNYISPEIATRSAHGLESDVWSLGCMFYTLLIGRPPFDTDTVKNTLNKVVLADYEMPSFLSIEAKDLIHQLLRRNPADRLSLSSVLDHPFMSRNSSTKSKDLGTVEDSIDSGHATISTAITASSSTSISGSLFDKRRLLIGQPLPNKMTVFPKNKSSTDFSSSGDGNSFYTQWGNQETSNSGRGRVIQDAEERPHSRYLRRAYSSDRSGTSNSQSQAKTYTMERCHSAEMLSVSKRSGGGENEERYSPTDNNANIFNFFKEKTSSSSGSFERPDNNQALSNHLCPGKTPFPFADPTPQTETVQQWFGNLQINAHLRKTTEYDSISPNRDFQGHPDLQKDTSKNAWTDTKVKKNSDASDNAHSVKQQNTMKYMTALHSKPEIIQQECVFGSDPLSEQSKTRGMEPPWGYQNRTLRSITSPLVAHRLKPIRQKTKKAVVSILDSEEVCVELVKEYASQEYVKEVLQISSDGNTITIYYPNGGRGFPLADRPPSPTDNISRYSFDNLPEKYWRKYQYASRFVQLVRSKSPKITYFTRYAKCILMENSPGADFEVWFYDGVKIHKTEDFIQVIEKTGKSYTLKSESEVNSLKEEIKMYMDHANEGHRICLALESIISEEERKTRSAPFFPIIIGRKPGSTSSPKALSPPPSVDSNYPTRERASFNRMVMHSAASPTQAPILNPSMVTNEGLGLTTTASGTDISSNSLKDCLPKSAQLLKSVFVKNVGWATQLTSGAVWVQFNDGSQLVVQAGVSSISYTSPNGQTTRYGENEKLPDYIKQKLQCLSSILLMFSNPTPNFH

PDGFRB = PDGFRB (Homo sapiens, UniProt P09619); assay: Inhibition of other protein kinases: PDGFRB; type: biochemical
Chain of PDGFRB (P09619 33-1106, species assumed): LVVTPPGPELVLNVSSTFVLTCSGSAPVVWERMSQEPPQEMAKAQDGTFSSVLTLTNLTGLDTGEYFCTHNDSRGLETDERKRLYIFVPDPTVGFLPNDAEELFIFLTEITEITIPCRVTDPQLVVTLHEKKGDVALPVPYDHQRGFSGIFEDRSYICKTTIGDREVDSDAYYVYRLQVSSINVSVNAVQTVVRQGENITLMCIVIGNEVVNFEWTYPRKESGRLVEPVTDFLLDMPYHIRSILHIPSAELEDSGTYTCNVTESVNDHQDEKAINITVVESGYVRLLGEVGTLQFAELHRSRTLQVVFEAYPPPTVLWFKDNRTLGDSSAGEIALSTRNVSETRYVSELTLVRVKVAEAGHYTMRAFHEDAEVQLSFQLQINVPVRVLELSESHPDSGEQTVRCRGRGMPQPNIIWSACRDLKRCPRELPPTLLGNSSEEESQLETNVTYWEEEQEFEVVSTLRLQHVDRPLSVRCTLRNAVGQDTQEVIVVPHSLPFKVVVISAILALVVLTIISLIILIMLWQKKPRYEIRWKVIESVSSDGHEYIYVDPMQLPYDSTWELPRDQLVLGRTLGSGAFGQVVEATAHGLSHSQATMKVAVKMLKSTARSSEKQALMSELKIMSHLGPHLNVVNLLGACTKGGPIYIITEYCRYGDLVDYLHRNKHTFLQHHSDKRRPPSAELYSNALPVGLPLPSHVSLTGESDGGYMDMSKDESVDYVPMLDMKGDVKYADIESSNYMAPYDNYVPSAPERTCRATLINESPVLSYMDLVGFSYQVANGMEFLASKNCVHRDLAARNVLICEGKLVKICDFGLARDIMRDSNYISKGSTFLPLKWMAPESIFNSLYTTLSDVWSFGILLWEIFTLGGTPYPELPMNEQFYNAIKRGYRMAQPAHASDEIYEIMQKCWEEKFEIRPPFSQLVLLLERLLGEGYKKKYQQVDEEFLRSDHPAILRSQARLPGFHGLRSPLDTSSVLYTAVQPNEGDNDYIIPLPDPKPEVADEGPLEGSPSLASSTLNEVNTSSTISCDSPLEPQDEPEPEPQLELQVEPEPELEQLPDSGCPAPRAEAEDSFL

FLT3 = molecular target: T3, FLT3 (Homo sapiens, UniProt P36888); assay: Inhibition of other protein kinases: FLT3; type: biochemical
T3 sequence (P36888 27-993): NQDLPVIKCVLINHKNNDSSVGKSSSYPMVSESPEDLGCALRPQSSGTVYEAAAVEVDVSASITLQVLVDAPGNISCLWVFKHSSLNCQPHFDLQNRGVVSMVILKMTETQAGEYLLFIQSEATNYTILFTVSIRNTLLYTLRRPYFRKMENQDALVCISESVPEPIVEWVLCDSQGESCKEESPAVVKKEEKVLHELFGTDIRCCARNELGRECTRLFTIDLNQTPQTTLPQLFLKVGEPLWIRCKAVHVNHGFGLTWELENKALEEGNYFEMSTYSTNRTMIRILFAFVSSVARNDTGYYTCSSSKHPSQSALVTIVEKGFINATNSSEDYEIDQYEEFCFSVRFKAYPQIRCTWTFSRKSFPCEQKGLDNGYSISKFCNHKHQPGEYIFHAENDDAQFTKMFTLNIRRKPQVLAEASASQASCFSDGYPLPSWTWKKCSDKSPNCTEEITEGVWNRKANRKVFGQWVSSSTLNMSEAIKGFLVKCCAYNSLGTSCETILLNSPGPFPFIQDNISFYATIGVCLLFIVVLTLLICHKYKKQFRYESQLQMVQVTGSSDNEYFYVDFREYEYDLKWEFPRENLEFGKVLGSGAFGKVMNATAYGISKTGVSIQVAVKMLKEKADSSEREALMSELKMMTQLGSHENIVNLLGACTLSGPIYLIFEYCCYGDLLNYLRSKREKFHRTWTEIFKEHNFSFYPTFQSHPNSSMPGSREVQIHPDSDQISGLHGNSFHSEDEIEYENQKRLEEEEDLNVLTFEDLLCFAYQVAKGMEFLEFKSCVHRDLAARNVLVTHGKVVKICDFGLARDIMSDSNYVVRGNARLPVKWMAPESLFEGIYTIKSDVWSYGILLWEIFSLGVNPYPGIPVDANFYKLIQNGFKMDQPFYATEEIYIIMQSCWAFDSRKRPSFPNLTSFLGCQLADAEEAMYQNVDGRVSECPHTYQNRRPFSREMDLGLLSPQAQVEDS

SMILES	pIC50 [1]	pIC50 (HCT-116 cells; HCT-116, 96-h incubation, MTS)	further results
CN(C)Cc1ccccc1NC(=O)Nc1ccc(CCNc2ncnc3oc(-c4ccccc4)c(Cl)c23)cc1 [Compound 209]	> 6.00 and 6.40 to 7.35	> 7.00	tumor growth suppression (HCT-116 xenografts; 5 mg/kg daily, IV, days 1-5 and 8-12): suppressed tumor growth insignificantly; inhibition of tumor growth (HCT-116 xenografts; 15 mg/kg daily, IV, days 1-5 and 8-12): inhibition of tumor growth comparable to that of VX-680; average tumor size (HCT-116 xenografts; eleventh day (dose group not stated)): 654 mm^3; average tumor size (HCT-116 xenografts; fourth day (dose group not stated)): 381 mm^3
O=C(Nc1ccccc1)Nc1ccc(CCNc2ncnc3oc(-c4ccccc4)c(Cl)c23)cc1 [Compound 82]	6.40 to 7.35 and > 6.00	6.05 to 7.00	inhibits the activity of PLK4 (PLK4): inhibits; inhibits the activity of PDGFRB (PDGFRB): inhibits; inhibits the activity of FLT3 (FLT3): inhibits
O=C(NCCCl)Nc1ccc(CCNc2ncnc3oc(-c4ccccc4)c(Cl)c23)cc1 [Compound 217]	> 6.00 and 6.40 to 7.35	–	pIC50 (HCT-116 cells; HCT-116, 96 h): 6.05 to 7.00
O=C(Nc1ccccc1)Nc1ccc(CCNc2ncnc3oc(-c4ccc(OCCN5CCOCC5)cc4)cc23)cc1 [Compound 230]	6.40 to 7.35 and > 6.00	6.05 to 7.00	–
Cc1cc(Nc2cc(N3CCN(C)CC3)nc(Sc3ccc(NC(=O)C4CC4)cc3)n2)n[nH]1 [VX-680, reference compound]	–	–	inhibition of tumor growth (HCT-116 xenografts; 50 mg/kg daily, IV, days 1-5 and 8-12, positive control): inhibition of tumor growth
O=C(Nc1ccccc1)Nc1ncc(CCNc2ncnc3oc(-c4ccccc4)c(-c4ccccc4)c23)s1 [Compound 171]	6.40 to 7.35 and > 6.00	6.05 to 7.00	–
O=C(Nc1ccccc1)Nc1ccc(CCNc2ncnc3oc(-c4cccc(O)c4)cc23)cc1 [Compound 223]	> 6.00 and 6.40 to 7.35	6.05 to 7.00	–
COc1ccc(-c2oc3ncnc(NCCc4ccc(NC(=O)Nc5ccccc5)cc4)c3c2-c2ccc(OC)cc2)cc1 [Compound 23]	6.40 to 7.35 and > 6.00	6.05 to 7.00	–
O=C(Nc1ccc(CCNc2ncnc3oc(-c4ccccc4)c(-c4ccccc4)c23)cc1)NC1CCC1 [Compound 214]	6.40 to 7.35 and > 6.00	6.05 to 7.00	–
O=C(Nc1ccc(CCNc2ncnc3oc(-c4ccccc4)c(-c4ccccc4)c23)cc1)Nc1cccc(F)c1 [Compound 14]	6.40 to 7.35 and > 6.00	6.05 to 7.00	–
O=C(Nc1ccccc1)Nc1ccc(CCNc2ncnc3oc(-c4ccccc4)c(-c4ccc(CO)o4)c23)cc1 [Compound 250]	6.40 to 7.35 and > 6.00	6.05 to 7.00	–
O=C(Nc1ccccc1)Nc1ccc(CCNc2ncnc3oc(-c4ccccc4)c(C#CCO)c23)cc1 [Compound 202]	> 6.00 and 6.40 to 7.35	6.05 to 7.00	–
O=C(Nc1ccccc1)Nc1ccc(CCNc2ncnc3oc(-c4ccccc4)c(CCCCO)c23)cc1 [Compound 251]	> 6.00	6.05 to 7.00	–
